The subject of data set [1] is HTLV-IIIB strain of HIV-1 (in C8166-45 cells). In words: Syncytia (human T-cell culture) Assay. The class given is cell-based. Conditions: for pIC50: Human immunodeficiency virus 1, T-cell, C8166-45 cells, HTLV-IIIB strain, 72 hours, read-out: Syncytia Assay IC50. The protocol:
Formation of syncytia is a feature of in vitro cultures of CD4+ T-cells infected with HIV-1. In this assay (1), T-cells are treated with a putative replication inhibiting compound and then infected with HIV-1. After incubation, the culture is checked for the formation of syncytia. The absence or reduction in the number of syncytia is used as a measure of the test compound's ability to inhibit HIV replication.
The target cells, designated C8166-45, are a fusion of umbilical blood lymphocytes and T-cells from leukemia-lymphoma patients and are established at an initial density of 5×10^4 per 90 μl in RPMI 1640 (+10% fetal bovine serum) culture medium in 96 well flat bottom plates. A selected amount of test compound, dissolved in DMSO, is included. 50 TCID50 's (the dose that results in induced effect in 50% of test cultures) of the HTLV-IIIB strain of HIV-1 (3) are inoculated into each culture. Control cultures receive compound or virus only.
The cultures are incubated for 72 hours (4), at 37° C. with 5% carbon dioxide, and then visually examined for the frequency and distribution of virus-induced giant cell syncytia. The percent inhibition by the test compound is determined by comparison with control values.

For another data set, the system named is C8166-45 cell line. In words: MTT Assay (cytotoxicity). Conditions: C8166-45 cells, five days. It counts as cell-based, human.

pIC50: −log10 of the molar value. Where two headings read alike, the source gives them in different places.

One may read the pIC50 as the IC50 on a negative log10 scale, so that one unit is a factor of ten. Take `CCN1c2ncc(CCc3ccccc3)cc2C(=O)N(C)c2cccnc21` [Example 42, 5,11-Dihydro-11-ethyl-5methyl-8-(2-phenylethyl)-6H-dipyrido[3,2-b:2',3'-e][1,4]diazepin-6-one]: the pIC50 in data set [1] was 7.52.
As for `CCN1c2ncc(CCc3ccccc3)cc2C(=O)N(C)c2ccc(Cl)nc21` [Example 45, 2Chloro-5,11-dihydro-11-ethyl-5-methyl-8-(2-phenylethyl)-6H-dipyrido[3,2-b:2',3'-e][1,4]diazepin-6-one], the “MTT Assay CC30” value with C8166-45 cell line was > 60000 nM. Besides, the pIC50 in data set [1] is 8.00.
The like results for `CCN1c2ncc(CCOc3cc[n+]([O-])cc3)cc2C(=O)N(C)c2ccc(Cl)nc21` [Example 96, 2-chloro-5,11-dihydro-11-ethyl-5-methyl-8-[2-(N-oxo-pyrid-4-yloxy)ethyl]-6H-dipyrido[3,2-b:2',3'-e[]1,4]diazepin-6-one] were, in that order, > 256000 nM and 7.52.
Usually IC50 stands for the concentration that gives 50% inhibition. In the case of `CCN1c2ncc(COc3cccc(N)c3)cc2C(=O)N(C)c2ccc(Cl)nc21` [Example 99, 8-(3-aminophenyloxy)methyl-2-chloro-5,11-dihydro-11-ethyl-5-methyl-6H-dipyrido[3,2-b:2',3'-e][1,4]diazepin-6-one], in data set [1] (Human immunodeficiency virus 1, IIIB, T-cell, 72 h, read-out: Syncytia Assay IC50 (μM)), the IC50 stood at 0.02 µM.
Regarding `CCN1c2ncc(COc3ccccc3)cc2C(=O)N(C)c2ccc(Cl)nc21` [Example 100, 2-chloro-5,11-dihydro-11-ethyl-5-methyl-8-(phenyloxy)methyl-6H-dipyrido[3,2-b:2',3'-e][1,4]diazepin-6-one], the “MTT Assay CC30” value in the data set with C8166-45 cell line was > 60000 nM. Also, in data set [1], the negative logarithm of the IC50 (pIC50) was 7.30.
Regarding `CCN1c2ncc(CSc3ccccc3)cc2C(=O)N(C)c2ccc(Cl)nc21` [Example 117, 2-chloro-5,11-dihydro-11-ethyl-5-methyl-8-(phenylthio)methyl-6H-dipyrido[3,2-b:2',3'-e][1,4]diazepin-6-one], the “MTT Assay CC30” value with C8166-45 cell line worked out at 60000 nM. Besides, in data set [1], the pIC50 is 8.30.
As to `CCN1c2ncc(CS(=O)(=O)c3ccccc3)cc2C(=O)N(C)c2ccc(Cl)nc21` [Example 118, 2-chloro-5,11-dihydro-11-ethyl-5-methyl-8-(phenylsulfonyl)methyl-6H-dipyrido[3,2-b:2',3'e][1,4]diazepin-6-one], the “MTT Assay CC30” value in the data set with C8166-45 cell line was 45000 nM.
As for `CCN1c2ncc(CSc3ncccn3)cc2C(=O)N(C)c2ccc(Cl)nc21` [Example 121, 2-chloro-5,11-dihydro-11-ethyl-5-methyl-8-(pyrimidinyl-2-thio)methyl-6H-dipyrido[3,2-b:2',3'-e][1,4]diazepin-6-one], the “MTT Assay CC30” value in the data set on C8166-45 cell line worked out at 50000 nM.
`CCN1c2ncc(CSc3[nH]cnc4nncc3-4)cc2C(=O)N(C)c2ccc(Cl)nc21` [Example 122, 2-chloro-5,11-dihydro-11-ethyl-5-methyl-8-(1H-pyrazolo[3,4-d]pyrimidine-4-ylthio)methyl-6H-dipyrido[3,2-b:2',3'-e][1,4]diazepin-6-one]: the “MTT Assay CC30” value with C8166-45 cell line was 25000 nM.
The same measure, in the same setting: the figure for `CCN1c2ncc(COc3ccncc3)cc2C(=O)N(C)c2ccc(F)nc21` [Example 125, 5,11-dihydro-11-ethyl-2-fluoro-5-methyl-8-(pyrid-4-yloxy)methyl-6H-dipyrido[3,2-b:2',3'-e][1,4]diazepin-6-one] is 160000 nM.
On the same count and under the same terms, the figure for `CCN1c2ncc(COc3ccnc(C(F)(F)F)c3)cc2C(=O)N(C)c2ccc(Cl)nc21` [Example 126, 2-chloro-5,11-dihydro-11-ethyl-5-methyl-8-(2-trifluoromethylpyrid-4-yloxy)methyl-6H-dipyrido[3,2-b;2',3'-e][1,4]diazepin-6-one] is 64000 nM; for `CCN1c2ncc(CCOc3ccncc3)cc2C(=O)N(C)c2cccnc21` [Example 128, 5,11-dihydro-11-ethyl-5-methyl-8-(pyrid-4-yloxy)ethyl-6H-dipyrido[3,2-b:2',3'-e][1,4]diazepin-6-one] it is > 256000 nM.

Source of the values: patent US5705499A, “8-arylalkyl- and 8-arylheteroalkyl-5,11-dihydro-6H-dipyrido[3,2-B:2',3'-e][1]diazepines and their use in the treatment of HIV-1 infection” (Boehringer Ingelheim Pharmaceuticals, Inc., priority 1996, dated 1998).
